Data reported in patent US10301277B2, “Substituted ureas and methods of treating mental illness using the same” (ZHEJIANG JINGXIN PHARMACEUTICAL CO., LTD., priority 2016, dated 2019).
Where two headings read alike, the source gives them in different places.

Columns and labels:
[1] = Acute toxicity assay, single oral administration; conditions: ICR, mouse, in vivo
Method: Acute Toxicity Assay of the Cyclohexane Derivatives of the Present Invention
ICR mice orally administered with the compounds of the present invention were evaluated and their toxicity symptoms after oral administration were observed, as well as the mortality, which was calculated by Bliss method, thus the acute toxicities were compared.
• i. Preparation of solvent: Tween-80 of an appropriate amount was diluted with deionized water to a concentration of […] (g/v) Tween-80. • ii. […]. Administration: the test compound and solvent medium control groups (0.5% Tween-80) were administered orally.
Observations include but are not limited to: general condition, behavior, gait, eyes, mouth, nose, gastrointestinal tract, skin and hair and urogenital tract.

[2] = system: MK-801-induced schizophrenia model; experiment: MK-801-induced schizophrenia model, open field running behavior; type: in vivo, Sprague-Dawley rats; conditions: for inhibition of high spontaneous activity of MK-801-induced rats: dose of 0.3 mg/kg, compared with MK-801 model control; for Total Distance within 61-150 minutes / Improvement Rate: single oral administration 0.3 mg/kg; for Total Distance within 61-150 minutes: MK-801 0.3 mg/kg i.p., x ± SD; for Improvement Rate: versus MK-801 model control
Method: (I) Modeling of MK-801-Induced Schizophrenia in Mice
Each rat was placed in a soundproof box for 30 minutes on the day before the test to adapt. On the next day, each rat was administrated with the respective test compounds, and after 30 minutes, administrated intraperitoneally with a 0.3 mg/kg MK-801 solution at 5.0 mL/kg body weight of the rat to build a model of MK-801-induced schizophrenia in mice.
(II) Observation of Open Field Running Behavior
Mice were administered with MK-801 and then immediately placed in the soundproof box. The total distances of motion of mice within 2.5 hours were observed and recorded. Improvement rate=(total distance of model control−total distance of administration)/(total distance of model control)×100%. (III) Statistical Method
All the data was expressed with x±SD and processed by SPSS17.0 software statistical package. T-test and one-way analysis of variance were performed to compare the mean of two samples, with P<0.05 as significant difference.

Dopamine D3 receptor = Dopamine D3 receptor (Homo sapiens, UniProt P35462); experiment: Dopamine D3 receptor binding assay
Method: (§1) This test was carried out according to the dopamine D2/D3 receptor binding assay and the 5-HT1A receptor binding assay described in Jiangsu Hengyi Pharmaceutical Co., Ltd.'s Patent CN 103130737 A. IC50 values were calculated from concentration-dependent reactions using a non-linear analysis program. Ki values were calculated from IC50 values by using Cheng-Prussoff equation, i.e. Ki=IC50/(1+[L]/KD), wherein Ki is the affinity of the drug to the receptor; […]; and KD is the affinity of radioligand to the receptor.
The concentration of the compound was 10 μmol/L, and the assay was performed according to the method described in Journal of Pharmacology and Experimental Therapeutics 2010, 333 (1): 328.

Dopamine D2 receptor = molecular target: T1, Dopamine D2 receptor (Homo sapiens, UniProt P14416); experiment: Dopamine D2 receptor binding assay; conditions: [3H] Spiperone, HEK293 cells expressing D2 receptor
T1 construct: expressed in transfected cells
Method: as §1
(I) Dopamine D2 Receptor Binding Assay
• a. Transfection of D2 Receptor Cells: by using calcium phosphate method, HEK293 cells were transfected with a plasmid vector containing the D2 receptor protein gene. The transfected cells were cultured in a culture solution containing G418, followed by a selection of monoclonal cell and radioligand binding assay, finally obtaining a stable cell line with stable expression of D2 receptor protein. • b. Materials for receptor binding assay: isotope ligand [^3H] Spiperone (113.0 Ci/mmol); available from Sigma-Aldrich Company; (+) spiperone, available from RBI company; GF/B glass fiber filter paper, available from Whatman Company; Tris imported and packaged; PPO, POPOP, available from Shanghai Reagent Chemical Company; lipid-soluble scintillation solution; and Beckman LS-6500 Multi-function Liquid Scintillation Counter. ii. Test Method • a. Treatment of cells: HEK-293 cells were infected with various recombinant viruses of the above genes, respectively, and the receptor proteins were highly expressed on the membranes after 48-72 hours. The cells were centrifuged at 1000 rpm for 5 minutes. The culture solution was discarded, and the cells were collected and stored in a refrigerator at −20° C. for standby. The cells were resuspended with Tris-HCl buffer (pH=7.5) when tested. • b. Competitive binding assay for receptor
The compound to be tested and the radio ligand, both 20 μL, and 160 μL of receptor proteins were added to the reaction test tubes to achieve a final concentration of 10 μmol/L for each of the compound to be tested and positive control, incubated in a water bath of 30° C. for 50 minutes and immediately transferred to an ice bath to terminate the reaction; placed on a Millipore cell sample collector, filtered by suction rapidly through a […] glass fiber filter, and eluted with 3 mL of eluent (50 mM Tris-HCl, pH7.5) for three times and dried with microwave for 5-6 minutes. The filter paper was transferred into a 0.5 mL centrifuge tube to which 500 μL of lipid-soluble scintillation solution was added, and settled away from light for more than 30 minutes. The radioactive intensity was determined by counting. The concentration of the compound was 10 μmol/L, and inhibition rate (%) of each compound to the binding of isotope ligands was calculated according to the following equation: Inhibition rate (I%)=(total binding tube cpm−compound cpm)/(total binding tube cpm—non-specific binding tube cpm)×100%. (II) Dopamine D3 Receptor Binding Assay

5-HT1A receptor = molecular target: T2, 5-HT1A receptor (Homo sapiens, UniProt P08908); experiment: 5-HT1A receptor binding assay; conditions: [3H] 8-OH-DPAT, HEK-293 cells expressing 5-HT1A receptor
T2 construct: expressed in transfected cells
T2 sequence (P08908 1-422): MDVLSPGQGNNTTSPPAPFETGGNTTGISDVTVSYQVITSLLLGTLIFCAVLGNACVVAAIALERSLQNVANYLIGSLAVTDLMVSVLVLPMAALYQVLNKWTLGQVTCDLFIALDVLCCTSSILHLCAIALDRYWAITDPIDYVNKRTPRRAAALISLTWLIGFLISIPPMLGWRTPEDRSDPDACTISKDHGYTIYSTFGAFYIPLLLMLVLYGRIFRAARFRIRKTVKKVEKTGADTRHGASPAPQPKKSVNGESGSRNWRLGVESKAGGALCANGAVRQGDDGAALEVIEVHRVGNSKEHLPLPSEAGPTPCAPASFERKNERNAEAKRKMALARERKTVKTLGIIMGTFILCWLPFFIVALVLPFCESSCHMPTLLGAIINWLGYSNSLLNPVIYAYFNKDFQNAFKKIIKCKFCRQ
Method: as §1
(III) 5-HT1A Receptor Binding Assay
5-HT1A receptor isotope ligand [^3H] 8-OH-DPAT (available from PE Company); (+)5-hydroxytrptamine (available from Sigma Company); GF/B glass fiber filter paper (available from Whatman Company); lipid-soluble scintillation solution: PPO, POPOP (available from Shanghai Chemical Reagent Company); toluene (from Sinopharm Chemical Reagent Co., Ltd.); Tris imported and packaged.
Treatment of cells: HEK-293 cells which stably express the 5-HT1A receptor by gene recombination were cultured in DMEM+10% serum solution for 3-5 days and then collected with PBS. The cells were centrifuged at 3000 rpm and […] for 10 minutes. Afterwards, the supernate was discarded, and the cells were collected and stored in a refrigerator at −80° C. The cells were resuspended with D1 Binding Buffer (pH 7.4) when tested.
Inhibition rate of each compound of 10 umol/L to the binding of [^3H]8-OH-DPAT and the 5-HT1A receptor was determined by a general selection.

[3] = single oral administration, Bliss method, read-out: LD50

T1 sequence (P14416 whole entry, species assumed): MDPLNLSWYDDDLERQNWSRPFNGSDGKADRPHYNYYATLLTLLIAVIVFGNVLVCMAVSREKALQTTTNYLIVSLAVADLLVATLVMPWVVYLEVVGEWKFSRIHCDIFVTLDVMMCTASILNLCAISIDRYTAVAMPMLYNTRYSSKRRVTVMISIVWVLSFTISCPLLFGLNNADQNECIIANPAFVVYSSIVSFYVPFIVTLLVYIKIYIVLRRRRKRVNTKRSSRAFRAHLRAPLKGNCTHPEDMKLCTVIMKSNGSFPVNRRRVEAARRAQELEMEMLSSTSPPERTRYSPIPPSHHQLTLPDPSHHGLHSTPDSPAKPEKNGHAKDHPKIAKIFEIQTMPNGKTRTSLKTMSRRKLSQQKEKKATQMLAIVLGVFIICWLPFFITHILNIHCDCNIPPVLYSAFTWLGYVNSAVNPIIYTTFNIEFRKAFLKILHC
Dopamine D3 receptor, sequence (P35462 whole entry, species assumed): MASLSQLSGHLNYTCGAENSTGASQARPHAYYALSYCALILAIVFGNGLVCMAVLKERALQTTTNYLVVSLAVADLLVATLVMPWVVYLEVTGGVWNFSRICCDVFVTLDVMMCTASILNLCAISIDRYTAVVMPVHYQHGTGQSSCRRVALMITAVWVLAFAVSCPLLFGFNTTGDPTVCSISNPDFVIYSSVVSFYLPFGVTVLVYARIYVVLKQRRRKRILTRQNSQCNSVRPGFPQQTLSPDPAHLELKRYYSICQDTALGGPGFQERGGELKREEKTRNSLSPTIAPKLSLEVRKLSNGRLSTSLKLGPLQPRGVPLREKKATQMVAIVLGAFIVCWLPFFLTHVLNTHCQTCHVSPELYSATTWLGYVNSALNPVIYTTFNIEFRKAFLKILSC

SMILES | inhibition of high spontaneous activity of MK-801-induced rats [2] | Total Distance within 61-150 minutes [2] [m] | Improvement Rate [2] [%] | Ki (Dopamine D3 receptor) [nM] | Ki (Dopamine D2 receptor) [nM] | Ki (5-HT1A receptor) [nM] | other results
CN(C)C(=O)N[C@H]1CC[C@H](CCN2CCN(c3cccc(Cl)c3Cl)CC2)CC1 [Cariprazine, reference compound] | significantly inhibited | 168.25 ± 26.9 | 45.69 |  |  |  | LD50 at 6 days ([1]; po): 75.3 mg/kg; total distances of the rats within 150 minutes compared with MK-801 model control ([2]; 0.3 mg/kg): decreased
CN(C)C(=O)N[C@H]1CC[C@H](CCN2CCN(c3cccc4sccc34)CC2)CC1 [Compound 1, N′-[trans-4-[2-[4-(benzo[b]thiophene)-7-piperazinyl]ethyl]cyclohexyl]-N,N-dimethylurea] | significantly inhibit | 73.09 ± 11.7 | 76.41 |  |  |  | 
CN(C)C(=O)N[C@H]1CC[C@H](CCN2CCN(c3cccc4ccsc34)CC2)CC1 [Compound 2, N′-[trans-4-[2-[7-(benzo[b]thiophene)-7-piperazinyl]ethyl]cyclohexyl]-N,N-dimethylurea] | significantly inhibit | 46.95 ± 10.3 | 84.84 |  |  |  | 
CN(C)C(=O)N[C@H]1CC[C@H](CCN2CCN(c3cccc4cscc34)CC2)CC1 [Compound 3, N′-[trans-4-[2-[4-(benzo[c]thiophene)-7-piperazinyl]ethyl]cyclohexyl]-N,N-dimethylurea] | significantly inhibit | 63.79 ± 10.8 | 79.41 |  |  |  | 
CN(C)C(=O)N[C@H]1CC[C@H](CCN2CCN(c3nsc4ccccc34)CC2)CC1 [Compound 4, N′-[trans-4-[2-[4-(benzo[d]isothiazolyl)-3-piperazinyl]ethyl]cyclohexyl]-N,N-dimethylurea] |  | 232.18 ± 20.3 | 25.05 |  |  |  | 
CN(C)C(=O)N[C@H]1CC[C@H](CCN2CCN(c3noc4cc(F)ccc34)CC2)CC1 [Compound 5, N′-[trans-4-[2-[4-(6-fluoro-benzo[d]isoxazol)-3-piperazinyl]ethyl]cyclohexyl]-N,N-dimethylurea] | significantly inhibit | 5.43 ± 1.7 | 98.25 |  |  |  | 
CN(C)C(=O)N[C@H]1CC[C@H](CCN2CCN(c3ccc4c(Cl)noc4c3)CC2)CC1 [Compound 6, N′-[trans-4-[2-[4-(3-chloro-benzo[d]isoxazol)-6-piperazinyl]ethyl]cyclohexyl]-N,N-dimethylurea] | significantly inhibited | 171.78 ± 13.0 | 12.27 |  |  |  | 
CN(C)C(=O)N[C@H]1CC[C@H](CCN2CCC(c3noc4cc(F)ccc34)CC2)CC1 [Compound 7, N′-[trans-4-[2-[4-(6-fluoro-benzo[d]isoxazol)-3-piperidyl]ethyl]cyclohexyl]-N,N-dimethylurea] | significantly inhibited | 160.82 ± 12.91 | 48.09 |  |  |  | 
Cc1ccc2c(N3CCN(CC[C@H]4CC[C@H](NC(=O)N(C)C)CC4)CC3)noc2c1 [Compound 14, N′-[trans-4-[2-[4-(6-methyl-benzo[d]isoxazol)-4-piperazinyl]ethyl]cyclohexyl]-N,N-dimethylurea] | significantly inhibited | 150.28 ± 11.70 | 51.49 |  |  |  | 
CN(C)C(=O)N[C@H]1CC[C@H](CCN2CCN(c3cccc4ccsc34)CC2)CC1 [drawing 29] |  |  |  | 0.06 | > 1000 | 3.85 | 
CN(C)C(=O)N[C@H]1CC[C@H](CCN2CCN(c3cccc4cscc34)CC2)CC1 [drawing 30] |  |  |  | 0.07 | 978 | 3.72 | 
CN(C)C(=O)N[C@H]1CC[C@H](CCN2CCN(c3cccc4sccc34)CC2)CC1 [drawing 31] |  |  |  | 0.06 | > 1000 | 3.96 | 
CN(C)C(=O)N[C@H]1CC[C@H](CCN2CCN(c3noc4cc(F)ccc34)CC2)CC1 [drawing 32] |  |  |  | 0.29 | 1.3 | 4.12 | 
CN(C)C(=O)N[C@H]1CC[C@H](CCN2CCN(c3ccc4c(Cl)noc4c3)CC2)CC1 [drawing 33] |  |  |  | 0.57 | 251 | 22.8 | 
CN(C)C(=O)N[C@H]1CC[C@H](CCN2CCC(c3noc4cc(F)ccc34)CC2)CC1 [drawing 34] |  |  |  | 0.15 | > 1000 | 3.65 | 
CN(C)C(=O)N[C@H]1CC[C@H](CCN2CCN(c3cccc4ccsc34)CC2)CC1 [drawing 35] |  |  |  |  |  |  | LD50 at 6 days [1, 3]: 1100 mg/kg
CN(C)C(=O)N[C@H]1CC[C@H](CCN2CCN(c3cccc4cscc34)CC2)CC1 [drawing 36] |  |  |  |  |  |  | LD50 at 6 days [1, 3]: 1050 mg/kg
CN(C)C(=O)N[C@H]1CC[C@H](CCN2CCN(c3cccc4sccc34)CC2)CC1 [drawing 37] |  |  |  |  |  |  | LD50 at 6 days [1, 3]: 1080 mg/kg
